The results in this text go back to patent US20220202895A1, “PULSATIVE GNRH ADMINISTRATION FOR TREATING COGNITIVE DISORDERS” (INSERM (Institut National de la Santé et de la Recherche …, priority 2019, published 2022).

For data set [1], the system named is wild-type mice. Particulars: mouse, in vivo.
Experimental: Habituation/dishabituation test. The habituation/dishabituation test was used to assess the ability to differentiate between different odours (Breton-Provencher et al., 2009). Mice were single-housed for 8 days prior to testing. This olfactory test included a presentation of acetophenone (00790, Sigma) for habituation and octantal (05608, Sigma) for dishabituation, or vice versa. Before the test, mice were allowed to explore the open-field area and an empty odour box for 30 min. After this habituation period, mice were sequentially presented with one odour for four consecutive trials for a duration of 1 min, and an inter-trial interval of 10 min was maintained to ensure the replacement of the odour. After four consecutive trials, a second odour was presented during a 1 min trial. Odours (20 μl of 1:1000 dilution) were administered on a filter paper and placed in a perforated plastic box to avoid direct contact with the odour stimulus. The measurement consisted of recording the total amount of time the mouse spent sniffing the object during different trials.
Data set [2] has as its system wild-type mice. Particulars: mouse, in vivo. This is another data set of the same source.
Experimental: Novel object recognition test. Recognition memory was assessed using the novel object recognition test (Leger et al., 2013). Mice were single-housed for 5 days prior to testing. On day 1, two identical objects (A+A) were placed within the open-field arena on opposite sides of the cage, equidistant from the cage walls. Each mouse was placed within the two objects and allowed to explore them for 15 min. Day 2 consisted of two phases, a familiarization and a test phase. During the familiarization phase (trial 1) that lasted 15 min, mice explored two other identical objects (B+B). After this phase, mice were placed back in its home cage for 1 hour before starting the test phase. During the test phase, one object from trial 1 and a completely new object (B+C) were placed within the open-field area and mice were allowed to explore them for 5 min (trial 2). The object recognition score was calculated as the time spent exploring the new object (trial 2) over the total exploration time, and is used to represent recognition memory function. […]
For data set [3], the system named is wild-type mice. The data set can be described thus: LH pulsatility by serial tail blood sampling and LH ELISA. It counts as in vivo, mouse. To be noted: continuous subcutaneous infusion by osmotic pump, 15 days. The procedure: LH assays: LH levels were determined by the previously described sensitive LH sandwich ELISA (Steyn et al., 2013). A 96-well high-affinity binding microplate (Corning) was coated with 50 μL of capture antibody (monoclonal antibody, anti-bovine LHβ subunit, 518B7; L. Sibley; University of California, UC Davis) at a final dilution of 1:1,000 (in 0.1M Na2CO3/NaHCO3, pH 9.6) and incubated overnight at 4° C. Wells were incubated with 200 μL blocking buffer (5% (w/v) skimmed milk powder in 1×PBS-T pH 7.4 (0.1 M PBS, 0.05% Tween 20 (Sigma #P9416)) for 2 hours at room temperature (RT). A standard curve was generated using a twofold serial dilution of mouse LH (reference preparation, AFP-5306A; National Institute of Diabetes and Digestive and Kidney Diseases National Hormone and Pituitary Program (NIDDK-NHPP)) in 1% (w/v) BSA (Sigma, A9418) in 1×PBS-T. The LH standards and blood samples were incubated with 50 μL of detection antibody (rabbit LH antiserum, AFP240580Rb; NIDDK-NHPP) at a final dilution of 1:10,000 for 1.5 hours at RT. […] The reaction was stopped by the addition of 50 μL of 3M HCl to each well, and the absorbance was measured at 450 nm.
Adult mice were habituated with daily handling. […] LH levels were then determined using the protocol described before. […]
A general note: In an ELISA, binding on a coated surface is turned into a signal by an enzyme label.

In data set [4] the test system is GnRH-R expressing neurons of Gnrhr::Cre mice injected with hM4D(Gi) DREADD viral vector. To be noted: mouse, in vivo, 3 mg/kg.
Data set [5] has the same test system. To be noted: mouse, in vivo, 3 mg/kg. This is another data set of the same source.

“Also recorded” adds a separate entry of the source.

Take “LUTRELEF®: a GnRH peptide of clinic use to restore fertility in patients with hypogonadotropic hypogonadism; GnRH acetate/diacetate (gonadorelin), Ferring Pharmaceuticals”: the olfactory performance entry in the data set on wild-type mice [1] was “marked deleterious effects”. Further, the cognitive performance entry in the data set on wild-type mice [2] is on record as “marked deleterious effects”. Further, the “LH pulsatility (pulse frequency and amplitude)” value with wild-type mice [3] was “prevented; also recorded: blunted LH pulsatility”.

In the case of `C[N+]1([O-])CCN(C2=Nc3cc(Cl)ccc3Nc3ccccc32)CC1` [CNO, clozapine-n-oxide], the cognitive performance result in data set [4] was “dramatically reduced; also recorded: impaired”. Moreover, in data set [5], the “olfactory performance (ability to discriminate between different odors)” value is “dramatically reduced; also recorded: impaired”.
